Experiments:
CD4 on PBL = biological target: T1, CD4 on PBL (Homo sapiens, UniProt P01730); test: Inhibition of binding of αCD4-FITC (anti-Leu3a) to PBL, flow cytometry; details: for remaining activity at 7 µM: compound 7 μM
T1 construct: Human peripheral blood lymphocytes (PBL) were prepared by density gradient centrifugation; endogenous in cells; host or cells: human peripheral blood lymphocytes (PBL)
Method: (§1) Human peripheral blood lymphocytes (PBL) were prepared by density gradient centrifugation as previously described (Weaver et al., 1990). The effect of drugs on the binding of anti-CD4-FITC (αCD4), anti-CD3-FITC (αCD3), anti-CD8-FITC (αCDS), or HIV coat protein rgp120 was measured as previously described (Weaver et al., 1990). Briefly, cells were treated with a drug (10' RT) and then FITC labeled antibody or rgp120 followed by anti-rgp120-FITC. Binding was measured by quantitating cell bound fluorescence using flow cytometry. Some binding assays were run in phenol red free RPMI 1640/5% serum instead of the usual PBS to determine effectiveness under cell culture conditions.
Since anti-Leu3a (αCD4) and rgp120 bind to the same site on the CD4 molecule, interference in binding of αCD4 can be used to screen compounds for possible anti-HIV activity. EB or ATA are used as positive controls since they have been shown previously to block eCD4 and rpg120 binding (Weaver et al, "Polyionic compounds selectively alter availability of CD4 receptors for HIV coat protein rgp120," AIDS Res. Human Retrovir. 6 1125-1130 (1990)). […] Six of the dyes tested show significant ability to block αCD4 binding. Three compounds, Acid Blue 116, Acid Red 115, and Direct Red 79 were selected for more complete analysis.

[1] = test system: HIV isolate LAV-1BR in PHA stimulated human PBL; test: Production of intracellular HIV p24 measured by ELISA; type: cell-based; details: for pg/ml HIV p24: intracellular p24, ELISA, DMSO control 1222
Method: (§2) The effect of various drugs on growth of HIV isolate LAV-1BR in PHA stimulated human PBL was measured using two assays. Reverse transcriptase activity was measured in disrupted virions from the cell free supernatant as previously described (Anand et al, "Interaction between rifabutin and human immunodeficiency virus type-1: inhibition of replication, cytopathic effect and reverse transcriptase in vitro," Antimicrob. Agents Chemother. 32 684-688 (1988)).

[2] = Viability of PBL after 72 hr culture (propidium iodide exclusion); type: cell-based, human; details: human, PBL, 72 hr culture, untreated 90, read-out: % Viable Cells
Method: (§3) The effect of compounds on the viability of PBL was determined after culturing PBL for 72 hr at 37° C. Some cells were stimulated with 1 μl/ml of anti-T-cell receptor antibody for this time period. Cells were then washed 1× in PBS and resuspended in PBS with 3 μg/ml propidium iodide. After 10 min incubation cells were analyzed by flow cytometry. Live cells were defined as those excluding propidium iodide.

[3] = test system: HIV isolate LAV-1BR in PHA stimulated human PBL; test: microbe, parasite or virus in culture; type: cell-based; details: for CPM RT: [3H]-TTP incorporated by reverse transcriptase, DMSO control 6338
Method: as §2

[4] = Binding to serum proteins; type: in vitro ADME; details: not shown
[5] = Solubility in aqueous solutions; type: physicochemical; details: concentrations needed for efficacy in the presence of serum
αCD8 binding to PBL = test: Specificity: binding of αCD8-FITC to PBL; set-up: species or system human; details: for % Control Binding αCD8: αCD8-FITC binding in PBS, 10 min
Method: as §1
(§4) We have analyzed the specificity of these compounds by testing their ability to interfere with the binding of two other monoclonal antibodies, αCD3 and αCD8. […] The increase in binding of αCD3 on Direct Red 79 treated cells may reflect nonspecific binding.

αCD3 binding to PBL = biological target: T2, αCD3 binding to PBL (Homo sapiens, UniProt P07766); test: Specificity: binding of αCD3-FITC to PBL
T2 construct: Human peripheral blood lymphocytes (PBL) were prepared by density gradient centrifugation; endogenous in cells; host or cells: human peripheral blood lymphocytes (PBL)
Method: as §1, §4

[6] = biological target: T3, binding of HIV rgp120 to CD4 on peripheral blood lymphocytes (Homo sapiens, UniProt P01730); test: Inhibition of HIV rgp120 binding to PBL, detected with anti-rgp120-FITC, flow cytometry; details: rgp120 binding detected by αrgp120-FITC in PBS, % logarithmic mean channel number, 10 min
T3 construct: Human peripheral blood lymphocytes (PBL) were prepared by density gradient centrifugation; endogenous in cells; host or cells: human peripheral blood lymphocytes (PBL)
Method: as §1
The results shown in Table 2 confirm that the three dyes selected on the basis of their interference with αCD4 binding can also block binding of rgp120. Their relative efficacy appears to be similar in both assays.

anti-TCR stimulated PBL = test: Viability of PBL after 72 hr culture with anti-TCR stimulation (propidium iodide exclusion); type: cell-based, human; details: Table 5
Method: as §3

[7] = as above; type: cell-based, human; details: human, anti-tcr stimulated pbl; PBL, 72 hr culture with anti-TCR stimulation, 100 μM; untreated 78; read-out: % Viable Cells
Method: as §3

PBL = test: Viability of PBL after 72 hr culture (propidium iodide exclusion); type: cell-based, human; details: 72 hr of continuous culture
Method: as §3

[8] = 10 min, αCD4-FITC binding to PBL in PBS, % logarithmic mean channel number, compound 10 μM, read-out: % Control Binding
[9] = 10 min, αCD4-FITC binding to PBL in PBS, % logarithmic mean channel number, read-out: % Control Binding

T2 sequence (P07766 23-207): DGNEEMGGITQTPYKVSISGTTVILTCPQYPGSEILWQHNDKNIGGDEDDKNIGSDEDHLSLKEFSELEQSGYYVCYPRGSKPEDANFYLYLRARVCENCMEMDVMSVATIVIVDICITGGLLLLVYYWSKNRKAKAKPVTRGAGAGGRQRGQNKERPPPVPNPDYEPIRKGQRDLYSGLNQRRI
T2 sequence (P04234 22-171 partner): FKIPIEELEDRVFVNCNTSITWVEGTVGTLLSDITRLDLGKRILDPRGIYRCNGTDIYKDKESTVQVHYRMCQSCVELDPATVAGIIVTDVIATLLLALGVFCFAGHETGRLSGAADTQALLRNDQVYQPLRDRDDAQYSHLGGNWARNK
T2 sequence (P09693 23-182 partner): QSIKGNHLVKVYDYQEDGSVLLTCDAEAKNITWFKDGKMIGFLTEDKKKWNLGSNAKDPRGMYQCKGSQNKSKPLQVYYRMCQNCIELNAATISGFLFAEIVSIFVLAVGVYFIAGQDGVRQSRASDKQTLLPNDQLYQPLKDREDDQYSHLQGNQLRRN
T2 sequence (P20963 22-164 partner): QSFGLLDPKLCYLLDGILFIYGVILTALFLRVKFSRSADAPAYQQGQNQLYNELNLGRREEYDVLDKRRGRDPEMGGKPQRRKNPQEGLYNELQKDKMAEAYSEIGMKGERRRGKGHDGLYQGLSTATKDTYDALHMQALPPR

## Nc1ccc2cc(S(=O)(=O)O)cc(O)c2c1N=Nc1ccc(NC(=O)Nc2ccc(N=Nc3c(N)ccc4cc(S(=O)(=O)O)cc(O)c34)c(S(=O)(=O)O)c2)cc1S(=O)(=O)O [Direct Red 75, C.I. Direct Red 75]
CD4 on PBL; [8]
  remaining activity at 10 µM: 70%

## Cc1cc(NC(=O)Nc2ccc(N=Nc3cc(S(=O)(=O)O)c4cccc(S(=O)(=O)O)c4c3)c(C)c2)ccc1N=Nc1cc(S(=O)(=O)O)c2cccc(S(=O)(=O)O)c2c1 [Direct Yellow 50, reference compound]
CD4 on PBL; 10 min, αCD4-FITC binding to PBL in PBS, % logarithmic mean channel number, compound 50 μM, read-out: % Control Binding
  remaining activity at 50 µM: 42%

## Cc1cc(-c2cc(C)c(N=Nc3c(O)ccc4ccccc34)cc2S(=O)(=O)O)c(S(=O)(=O)O)cc1N=Nc1c(O)ccc2ccccc12 [Acid Red 89, C.I. Acid Red 89]
CD4 on PBL; [9]
  remaining activity at 7 µM: 6%

## COc1cc(-c2ccc(N=Nc3ccc4c(S(=O)(=O)[O-])cc(S(=O)(=O)[O-])c(N)c4c3O)c(OC)c2)ccc1N=Nc1ccc2c(S(=O)(=O)[O-])cc(S(=O)(=O)[O-])c(N)c2c1O.[Na+].[Na+].[Na+].[Na+] [Direct Blue 1, C.I. Direct Blue 1]
CD4 on PBL; αCD4-FITC binding to PBL in PBS, % logarithmic mean channel number, compound 10 μM
  % Control Binding: 1%

## O=C(Nc1ccc(N=Nc2ccc(O)c(C(=O)O)c2)cc1)Nc1ccc(N=Nc2ccc(O)c(C(=O)O)c2)cc1 [Direct Yellow 26, C.I. Direct Yellow 26]
CD4 on PBL; 10 min, αCD4-FITC binding to PBL in PBS, % logarithmic mean channel number, compound 12 μM, read-out: % Control Binding
  remaining activity at 12 µM: 84%

## O=C(O)C1=CC(=C(c2ccc(O)c(C(=O)O)c2)c2ccc(O)c(C(=O)O)c2)C=CC1=O [ATA, aurin tricarboxlyic acid, reference compound]
[1]; 0.25 μg/ml
  pg/ml HIV p24: 111 pg/mL
[1]; 2.5 μg/ml
  pg/ml HIV p24: 0 pg/mL
[2]; 10 μM
  viability at 72 h, 10 µM: 86%
[3]; Human immunodeficiency virus 1, 144 h, HIV reverse transcriptase activity, six day culture, 1 μM
  inhibition at 1 µM: 97%
[3]; six day culture, 1 μM
  CPM RT: 109 CPM
[4]
  binding to serum proteins (in words): does not bind to serum proteins

## Cc1ccccc1N=Nc1ccc(N=Nc2c(O)c(S(=O)(=O)[O-])cc3cc(S(=O)(=O)[O-])ccc23)c(C)c1.[Na+].[Na+] [Acid Red 115, C.I. Acid Red 115]
[5]
  solubility in aqueous solutions (in words): near their limits of solubility
αCD8 binding to PBL; compound 6 μM
  % Control Binding αCD8: 90%
αCD3 binding to PBL; Table 3
  effect on binding of αCD3 (in words): interferes with αCD3
αCD3 binding to PBL; αCD3-FITC binding in PBS, compound 6 μM, 10 min
  % Control Binding αCD3: 41%
CD4 on PBL; Table 3, αCD4-FITC binding in PBS, compound 6 μM, 10 min
  % Control Binding αCD4: 2%
CD4 on PBL; αCD4-FITC binding to PBL in PBS, % logarithmic mean channel number, compound 6 μM, 10 min
  % Control Binding: 2%
[6]; compound 6 μM
  % Control Binding: 10%

## COc1cc(N=Nc2cc(S(=O)(=O)O)cc3cc(S(=O)(=O)O)cc(O)c23)c(C)cc1NC(=O)Nc1cc(C)c(N=Nc2cc(S(=O)(=O)O)cc3cc(S(=O)(=O)O)cc(O)c23)cc1OC [Direct Red 79, C.I. Direct Red 79]
[1]; intracellular HIV p24 protein
  p24 production (in words): strongly decrease
[1]; 5 μg/ml
  pg/ml HIV p24: 333 pg/mL
αCD8 binding to PBL; Table 3
  effect on binding of αCD8 (in words): does not affect binding
αCD8 binding to PBL; compound 20 μM
  % Control Binding αCD8: 106%
αCD3 binding to PBL; 10 min, αCD3-FITC binding in PBS, compound 20 μM
  αCD3 binding, % of control at 20 µM: 124%
αCD3 binding to PBL; Table 3
  effect on binding of αCD3 (in words): does not affect binding
anti-TCR stimulated PBL
  effect on the proliferation of αTCR stimulated PBL (in words): limited effect
[7]
  viability at 72 h, 100 µM: 54%
CD4 on PBL; 10 min, Table 3, αCD4-FITC binding in PBS, compound 20 μM, read-out: % Control Binding αCD4
  remaining activity at 20 µM: 22%
CD4 on PBL; [8]
  remaining activity at 10 µM: 13%
PBL
  effect on the viability of PBL (in words): no effect
[2]; 400 μM
  viability at 72 h, 400 µM: 89%
[6]; compound 10 μM
  remaining rgp120 binding (% of control) at 10 µM: 30%
[3]; Human immunodeficiency virus 1, 144 h, HIV reverse transcriptase activity, six day culture, 100 μM
  inhibition at 100 µM: 97%
[3]; six day culture, 100 μM
  CPM RT: 145 CPM
[3]; after six days of culture
  production of reverse transcriptase activity (in words): strongly inhibit

## O=S(=O)(O)c1cccc(N=Nc2c(O)ccc3cc(S(=O)(=O)O)cc(S(=O)(=O)O)c23)c1 [FD1]
CD4 on PBL; 10 min, αCD4-FITC binding to PBL in PBS, % logarithmic mean channel number, compound 5 μM, read-out: % Control Binding
  remaining activity at 5 µM: 102%

## O=S(=O)(O)c1ccc2c(N=Nc3ccccc3)ccc(N=Nc3ccc(Nc4ccccc4)c4c(S(=O)(=O)O)cccc34)c2c1 [Acid Blue 116, C.I. Acid Blue 116]
[5]
  solubility in aqueous solutions (in words): near their limits of solubility
αCD8 binding to PBL; Table 3
  reduction of binding of αCD8 (fraction): about 1/2
αCD8 binding to PBL; compound 4 μM
  % Control Binding αCD8: 54%
αCD3 binding to PBL; 10 min, αCD3-FITC binding in PBS, compound 4 μM
  αCD3 binding, % of control at 4 µM: 44%
αCD3 binding to PBL; Table 3
  reduction of binding of αCD3 (fraction): about 1/2
CD4 on PBL; 10 min, Table 3, αCD4-FITC binding in PBS, compound 4 μM, read-out: % Control Binding αCD4
  remaining activity at 4 µM: 1%
CD4 on PBL; [9]
  remaining activity at 7 µM: 0%
[6]; compound 7 μM
  remaining rgp120 binding (% of control) at 7 µM: 9%
